Entries after “also recorded” stand apart in the source; their conditions may differ. Read-outs that look alike come from different tables or passages of the source. Where no end group is shown, it is not given here. The star is where a group is joined. FITC = O=C1OC2(c3ccc(O)cc3Oc3cc(O)ccc32)c2ccc(NC(=S)*)cc21
Assays:
[1] = system: CNGB3-Myc cDNA-transfected HEK293T cells; experiment: Apoptosis (TUNEL) of CNGB3-Myc transfected HEK293T cells; type: cell-based; settings: peptide alone added to culture medium
From the text: (§1) It was realized that this lack of effect could be due to the fact that receptor-bound dKLAK-z13 localizes to the luminal side of endosomes, a prediction supported by the endosome-like pattern of fluorescent z13. To release dKLAK-z13 from the endosomes to the cytoplasm, an endosome-escaping 18-mer peptide HLAHLAHHLAHLAHHLAH (SEQ ID NO:38; here abbreviated as HLAH) was devised by replacing lysines in KLAKLAK (SEQ ID NO:39) with histidines, to provide histidine-rich sequences capable of destabilizing endosome membranes at acidic pH (Midoux et al., 2002; Pichon et al., 2001). […] For this experiment, biotin-z13 was bound to CNGB3-MYC expressing HEK293T cells at 37° C. for 30 min with or without HLAH-z13. Cells were stained by Alexa 488-conjugated avidin followed by DAPI nuclear staining.
Each peptide was dissolved in dimethylsulfoxide at 100 μg/μl. Each peptide was added to the medium of cells, and the cells were cultured at 37° C. for 20 hours. Apoptosis of CNGB3-Myc cDNA-transfected HEK293T cells was determined by TUNEL assay using the ApopTag immunoperoxidase kit (Chemicon, Temecula, Calif.).

[2] = system: CNGB3-expressing HEK293T cells; experiment: Cell viability assay (ATP, CellTiter Glo) in CNGB3-expressing cells; type: cell-based; settings: 37° C. 1 hour, single peptide
Description: FIG. 5 is a graph of luminescence of live cells cultured in medium containing peptides on CNGB3-MYC expressing A431 cells versus peptide concentration for the four different peptide combinations: z13, dKLAK-z13, HLAH-z13, or dKLAK-z13 plus HLAH-z13. Cells were cultured in medium containing each peptide at the indicated concentrations at 37° C. for 1 hour. ATP levels were measured by CellTiter Glo (Promega). Lines represent, in order from top to bottom: z13, dKLAK-z13, HLAH-z13, and dKLAK-z13 plus HLAH-z13.
Cytotoxic activity of dKLAK-z13 was then assessed in the presence of HLAH-z13 using a cell viability assay (FIG. 5). When CNGB3-expressing HEK293T cells were cultured in medium containing z13, dKLAK-z13, or HLAH-z13 at 37° C. for 1 hour, cell viability was not affected except at high concentration of dKLAK-z13 (at 200 μg/ml) or HLAH-z13 (at 50 μg/ml). […] For this experiment, cells were cultured at 37° C. for 20 hours in medium containing no peptide; z13 (100 μg/ml); dKLAK (100 μg/ml); dKLAK-z13 (100 μg/ml); HLAH-z13 (25 μg/ml); or dKLAK-z13 (100 μg/ml) plus HLAH-z13 (25 μg/ml).

Ishikawa cells = experiment: Fluorescence microscopy binding to live cells; type: cell-based, human; settings: for fluorescence/binding of Qdot-conjugated peptide on Ishikawa cells: 100 nM
Description: (§2) Ishikawa cells and A431 cells were grown on glass coverslips in 3.5 cm tissue culture plates. Each phage clone including z13 was added to these cells, incubated at 4° C. for 15 min, washed with cold PBS, and fixed with 1% paraformaldehyde (PFA) in PBS. Phage was detected using rabbit anti-T7 antibody and FITC-conjugated goat anti-rabbit IgG antibody. After washing three times with PBS, cells were fixed with 1% paraformaldehyde in PBS and inspected under a Zeiss Axioplan fluorescence microscope. Ishikawa cells grown on glass coverslips were incubated in medium containing FITC-z13 peptide (1 μg/ml) at 37° C. for 15 min. After washing with PBS, cells were fixed with 1% PFA in PBS, and inspected under the fluorescence microscope. Qdot-encapsulated and C16-z13 peptide coated liposomes were prepared as described above. Ishikawa cells were incubated with these liposomes at 37° C. for 15 min, washed with PBS, fixed with 1% PFA, and inspected under the fluorescence microscope. Qdot605-conjugated peptide, Qdot-cys-z13, or control peptide, Qdot-cys-m2, was added to the culture at 100 nM and left at 37° C. for 15 min.
(§3) Ishikawa cells and A431 cells were grown on glass coverslips in 3.5-cm tissue culture plates. Ishikawa cells grown on glass coverslips were incubated in medium containing FITC-z13 peptide (1 μg/ml) at 37° C. for 15 min. After washes with PBS, cells were fixed with 1% PFA in PBS and inspected under a fluorescence microscope. Qdot-cys-z13 was prepared by conjugating cys-z13 to Qdot nanoparticles (Qdot antibody conjugation kit, Quantum Dot, Hayward, Calif.) in accordance with the manufacturer's protocol. Cells were inspected under a Zeiss Axioplan fluorescence microscope.

A431 cells = experiment: Fluorescence microscopy binding to control cells; type: cell-based, human
Description: as §2, §3

CNGB3 [3] = target: T1, CNGB3 (Homo sapiens, UniProt Q9NQW8); experiment: FITC-z13 binding to HeLa cells transfected with CNGB3-MYC; type: cell-based; settings: 5 μg/ml, 37° C. 15 min
T1 construct: tissue Folio Biosciences; Imgenex; host or cells: human endometriosis tissue sections, normal uterine endometrium and normal tissue microarrays, peritoneum
T1 sequence (Q9NQW8 1-809 C234W): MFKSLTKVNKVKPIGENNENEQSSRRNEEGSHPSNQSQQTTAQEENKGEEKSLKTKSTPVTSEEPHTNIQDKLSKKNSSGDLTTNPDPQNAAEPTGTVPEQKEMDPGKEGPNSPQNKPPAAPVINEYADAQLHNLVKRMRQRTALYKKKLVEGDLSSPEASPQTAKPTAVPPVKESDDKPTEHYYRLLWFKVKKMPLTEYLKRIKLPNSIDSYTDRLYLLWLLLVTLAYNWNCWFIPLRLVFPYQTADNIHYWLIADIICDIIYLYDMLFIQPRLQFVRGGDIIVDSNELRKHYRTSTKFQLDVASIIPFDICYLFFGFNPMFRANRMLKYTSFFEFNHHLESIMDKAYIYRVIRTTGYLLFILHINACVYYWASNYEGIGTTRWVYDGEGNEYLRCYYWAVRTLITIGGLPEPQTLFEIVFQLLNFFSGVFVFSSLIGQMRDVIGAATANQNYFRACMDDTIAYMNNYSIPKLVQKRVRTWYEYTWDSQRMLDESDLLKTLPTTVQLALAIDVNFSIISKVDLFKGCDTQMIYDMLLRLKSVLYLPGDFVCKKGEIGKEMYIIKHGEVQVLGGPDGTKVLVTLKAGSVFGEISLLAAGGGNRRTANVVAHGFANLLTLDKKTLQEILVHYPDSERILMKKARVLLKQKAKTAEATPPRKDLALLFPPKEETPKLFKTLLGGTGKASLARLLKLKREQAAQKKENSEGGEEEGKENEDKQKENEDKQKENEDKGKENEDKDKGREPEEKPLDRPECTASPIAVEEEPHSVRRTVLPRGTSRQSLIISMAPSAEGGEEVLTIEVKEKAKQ
From the text: (§4) To assess binding of FITC-z13 to CNGB3, HeLa cells were transfected with a mammalian expression vector encoding a CNGB3-MYC fusion protein or with control empty vector. Fluorescence micrographs were made of HeLa cells transfected by control vector or with an expression vector encoding CNGB3-MYC.
(§5) CNGB3 cDNA was kindly provided by Dr. Hisao Ueyama, Department of Ophthalomology, Shiga University of Medical Science, Japan. cDNA encoding full-length CNGB3 was excised by HindIII and BsrGI and ligated into the HindIII and Asp718I sites of pcDNA3.1/myc-His-B vector (Invitrogen). HeLa cells were transfected with this vector, and expression of CNGB3-MYC/His fusion protein was determined by immunohistochemistry with an anti-MYC antibody and the anti-CNGB3 antibody (clone 3B2) described above. To test binding of z13 peptide to CNGB3, FITC-z13 was added (5 μg/ml) to the medium of HeLa cells transfected by the above-described vector and incubated at 37° C. for 15 min. Cells were washed with PBS, fixed with 4% PFA in PBS, and observed under a fluorescence microscope.

CNGB3 [4] = target: T2, CNGB3 (Homo sapiens, UniProt Q9NQW8, C234W); experiment: as above; type: cell-based; settings: control empty vector
T2 construct: tissue Folio Biosciences; Imgenex; host or cells: human endometriosis tissue sections, normal uterine endometrium and normal tissue microarrays, peritoneum
T2 sequence (Q9NQW8 1-809 C234W): T1 sequence (Q9NQW8 1-809 C234W)
From the text: as §4, §5

[5] = system: CNGB3-positive A431 cells; experiment: Cell viability assay measuring ATP with KLA-HLA hybrid z13 peptides; type: cell-based, human; settings: 37° C. 6 hours, ATP by CellTiter Glo (FIG. 8)
Description: FIG. 8 is a graph of luminescence versus peptide concentration in μg/ml. […] Cells were cultured in medium containing each peptide at indicated concentrations at 37° C. for 6 hours. ATP levels were measured by CellTiter Glo (Promega).
(§6) The effect of these peptides was tested using CNGB3-positive A431 cells, which was generated by transfecting A431 cells with CNGB3-Myc gene driving lenti viral vector. […] The assays used detected no difference between these two peptides. The TUNEL assay was of CNGB3-MYC expressing A431 cells after culturing in medium containing KLA-HLA-z13 for 24 hours.

mammalian cell = settings: not coupled to a targeting domain; cited from earlier work
[6] = system: CNGB3-MYC expressing A431 cells; experiment: TUNEL assay with KLA-HLA hybrid z13 peptides; type: cell-based, human; settings: 24 hours in medium containing peptide
Description: as §6

[7] = system: CNGB3-MYC expressing HEK293T cells; experiment: Endosome escape of biotin-z13 in CNGB3-MYC expressing HEK293T cells; type: cell-based; settings: 37° C. 30 min
From the text: as §1

## KLAKLAKKLAKLAKKLAKVRRADNRPG [dKLAK-z13]
[1]
  induction of apoptosis in CNGB3-expressing cells: apoptosis was not induced; also recorded: did not induce apoptosis
[2]
  high concentration at which cell viability was affected (otherwise not affected): 200 µg/mL

## FITC-z13: synthetic fluorescence-tagged z13 peptide whose amino-terminus was conjugated ({FITC}-VRRADNRPG)
Ishikawa cells; 1 μg/ml, 37° C. 15 min
  binding of FITC-tagged z13 peptide to Ishikawa cells: bound
A431 cells
  binding of FITC-tagged z13 peptide to A431 cells: did not show fluorescence
A431 cells; listed as z13 peptide with an N-terminal FITC-tag
  binding of FITC-tagged z13 peptide to A431 cells: not
CNGB3 [3]
  binding to CNGB3-MYC-expressing HeLa cells: bound to sites marked by MYC-epitope expression
CNGB3 [4]
  binding to vector-transfected control HeLa cells: did not bind

## HLAHLAHHLAHLAHKLAKLAKKLAKLAKVRRADNRPG [HLA-KLA-z13]
[5]
  apoptosis / loss of viability of CNGB3-positive A431 cells: induced apoptosis

## (KLAKLAK)2 (KLAKLAKKLAKLAK) [mitochondriotoxic pro-apoptotic peptide (PAP)]
Mammalian cell
  mammalian cell cytotoxicity of the peptide by itself: low mammalian cell cytotoxicity

## Qdot-cys-z13: synthetic cys-z13 peptide CVRRADNRPG conjugated to fluorescent nanocrystal Qdot605 (also: conjugated to Qdot605 nanocrystal)
Ishikawa cells; 37° C. 15 min
  fluorescence/binding of Qdot-conjugated peptide on Ishikawa cells: strong fluorescence
Ishikawa cells; 37° C. 15 min, listed as Qdot-z13
  fluorescence/binding of Qdot-conjugated peptide on Ishikawa cells: bound
A431 cells
  binding of Qdot-conjugated peptide to A431 cells: not

## KLAKLAKKLAKLAKHLAHLAHHLAHLAHVRRADNRPG [KLA-HLA-z13]
[5]
  apoptosis / loss of viability of CNGB3-positive A431 cells: induced apoptosis
[6]
  frequency of TUNEL-positive cells: dose-dependent increase in the frequency of TUNEL-positive cells

## HLAHLAHHLAHLAHHLAHVRRADNRPG (HLAHLAHHLAHLAHHLAHVRRAXNXPG; (23)..(23) Xaa can be any naturally occurring amino acid; (25)..(25) Xaa can be any naturally occurring amino acid) [HLAH-z13]
[7]
  endosome-escaping activity (release of biotin-z13 from endosomes to cytoplasm): promotes endosome-escaping activity
[2]
  high concentration at which cell viability was affected (otherwise not affected): 50 µg/mL

## VRRADNRPG [z13]
Ishikawa cells; punctuate cytoplasmic staining pattern in micrographs
  cellular localization of z13 in Ishikawa cells: internalized to endosomes
[2]
  cell viability: not affected

Source: patent US9783576B2, “Compositions and methods for targeted endometriosis treatment” (Sanford-Burnham Medical Research Institute, priority 2013, dated 2017)
